The results in this text go back to patent EP0321967A2, “Compounds active on the cardiovascular system” (ZAMBON GROUP S.p.A., priority 1987, dated 1989).

In test [1] the test system is spontaneously hypertensive rat. The test can be described thus: Systemic arterial pressure decrease after intravenous administration in spontaneously hypertensive rat. It counts as in vivo. The conditions noted are these: in comparison with the basal value. From the text:
The compounds object of the present invention after administration by intravenous route in spontaneously hypertensive rat at the dose of 0.033-0.53 µm/kg induce a meaningful systemic arterial pressure decrease comprised between 20 and 90 mmHg.

In another test the target is T1, D₁ receptor (Rattus norvegicus, UniProt P18901).
T1 construct: from tissue; host or cells: isolated membranes of rat striated muscle (so in the source); probably striatum is meant
T1 sequence (P18901 whole entry): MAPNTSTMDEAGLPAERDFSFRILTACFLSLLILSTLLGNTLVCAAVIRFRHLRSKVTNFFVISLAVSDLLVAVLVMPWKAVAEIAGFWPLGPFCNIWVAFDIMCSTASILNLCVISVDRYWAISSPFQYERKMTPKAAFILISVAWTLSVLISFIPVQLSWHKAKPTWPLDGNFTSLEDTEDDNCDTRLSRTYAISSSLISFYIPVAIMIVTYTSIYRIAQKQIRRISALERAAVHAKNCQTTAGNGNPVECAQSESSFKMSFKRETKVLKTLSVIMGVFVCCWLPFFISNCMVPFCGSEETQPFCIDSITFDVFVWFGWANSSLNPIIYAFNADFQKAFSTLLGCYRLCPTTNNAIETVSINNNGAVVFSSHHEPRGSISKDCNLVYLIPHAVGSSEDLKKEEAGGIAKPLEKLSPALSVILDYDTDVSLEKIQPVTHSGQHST
The test can be described thus: Dopaminergic activity: receptor binding on isolated membranes of rat striated muscle, D1. The conditions noted are these: read-out: IC₅₀. The method, then:
(§1) The dopaminergic activity of compound A, for example, has been evaluated as percentage of receptor binding on isolated membranes of rat striated muscle; the IC₅₀ resulted to be 0.3 µM for D₂ receptor and 3 µM for D₁ receptor.

The next test deals with T2, D₂ receptor (Rattus norvegicus, UniProt P61169).
T2 construct: from tissue; host or cells: isolated membranes of rat striated muscle (so in the source); probably striatum is meant
T2 sequence (P61169 whole entry): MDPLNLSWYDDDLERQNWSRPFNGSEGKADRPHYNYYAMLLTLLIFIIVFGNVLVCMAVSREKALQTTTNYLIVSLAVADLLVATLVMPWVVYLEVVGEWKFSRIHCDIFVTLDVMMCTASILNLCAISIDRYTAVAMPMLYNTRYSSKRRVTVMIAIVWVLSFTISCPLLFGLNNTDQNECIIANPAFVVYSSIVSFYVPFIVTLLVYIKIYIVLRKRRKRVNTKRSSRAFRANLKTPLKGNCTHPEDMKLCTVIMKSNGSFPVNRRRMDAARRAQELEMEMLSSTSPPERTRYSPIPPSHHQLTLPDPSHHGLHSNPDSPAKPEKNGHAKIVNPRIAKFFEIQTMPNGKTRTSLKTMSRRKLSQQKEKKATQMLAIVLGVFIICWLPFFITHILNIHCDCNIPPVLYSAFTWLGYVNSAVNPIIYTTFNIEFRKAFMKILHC
The test is described as follows: Dopaminergic activity: receptor binding on isolated membranes of rat striated muscle, D2. As to conditions: read-out: IC₅₀. On the procedure: as §1

The subject of another test is α₁. The test can be described thus: α1-antagonistic effect on phenylephrine-induced vasoconstriction of rabbit isolated aorta. It counts as cell-based. As to conditions: antagonism of vasoconstriction induced by phenylephrine (α₁-agonist). From the text:
The α₁-antagonistic effect has been evaluated as antagonistic effect (pA₂) on vasoconstriction induced by phenylephrine (α₁-agonist) on rabbit isolated aorta. For compound A the obtained pA₂ value was 7.7.

For the compound `CCCN(CCOc1ccccc1OC)CCc1ccc(O)c(O)c1.Cl` [compound A, N-[2-(2-methoxyphenoxy)ethyl]-N-propyl-dopamine hydrochloride], the “reduction of systemic arterial pressure” value in test [1] (dose 12.5 µg/kg) amounted to 51 mmHg; in test [1] (dose 200 µg/kg), 89 mmHg. For the same compound, the IC50 was 3000 nM at D₁ receptor and 300 nM at D₂ receptor. The pA₂ with α₁ is 7.7.
